# Source: the supplement of paper PMC12370961
# What was measured:
# Experiment in all cases: differential drug sensitivity score (dDSS) relative to sarcoma reference cohort mean DSS (DSS units (0-100 scale difference)); higher = more selective sensitivity than reference sarcomas
# Settings in all cases: exposure time: 72 h; concentration range: 10-10000 nM
# CDS-ZH001-2 = test system: CDS-ZH001-2 (patient-derived CIC-DUX4 sarcoma tumoroid)
# Description: (§1)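 Drug response profiling of patient-derived Ewing sarcoma and CIC::DUX4 sarcoma tumoroid models (or cells tested directly after isolation from the tumor, 'direct'). The DSS is the normalised AUC (0-100); dDSS is the sample DSS minus the mean DSS of a 34-sarcoma reference cohort profiled in the same lab.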
# CDS-ZH001 = test system: CDS-ZH001 (patient-derived CIC-DUX4 sarcoma tumoroid)
# Description: as §1
# CDS-ZH002 direct = test system: CDS-ZH002 direct (CIC-DUX4 sarcoma cells right after isolation)
# Description: as §1
# CDS-ZH002 = test system: CDS-ZH002 (patient-derived CIC-DUX4 sarcoma tumoroid)
# Description: as §1
# CDS-ZH003 = test system: CDS-ZH003 (patient-derived CIC-DUX4 sarcoma tumoroid)
# Description: as §1
# ES-ZH001 = test system: ES-ZH001 (patient-derived Ewing sarcoma tumoroid)
# Description: as §1
# ES-ZH002 = test system: ES-ZH002 (patient-derived Ewing sarcoma tumoroid)
# Description: as §1
# ES-ZH004 = test system: ES-ZH004 (patient-derived Ewing sarcoma tumoroid)
# Description: as §1
# ES-ZH007 = test system: ES-ZH007 (patient-derived Ewing sarcoma tumoroid)
# Description: as §1
# ES-ZH008 = test system: ES-ZH008 (patient-derived Ewing sarcoma tumoroid)
# Description: as §1
# ES-ZH009 = test system: ES-ZH009 (patient-derived Ewing sarcoma tumoroid)
# Description: as §1
# ES-ZH016 direct = test system: ES-ZH016 direct (Ewing sarcoma cells right after isolation)
# Description: as §1
# ES-ZH016 = test system: ES-ZH016 (patient-derived Ewing sarcoma tumoroid)
# Description: as §1
SMILES,differential drug sensitivity score (CDS-ZH001-2),differential drug sensitivity score (CDS-ZH001),differential drug sensitivity score (CDS-ZH002 direct),differential drug sensitivity score (CDS-ZH002),differential drug sensitivity score (CDS-ZH003),differential drug sensitivity score (ES-ZH001),differential drug sensitivity score (ES-ZH002),differential drug sensitivity score (ES-ZH004),differential drug sensitivity score (ES-ZH007),differential drug sensitivity score (ES-ZH008),differential drug sensitivity score (ES-ZH009),differential drug sensitivity score (ES-ZH016 direct),differential drug sensitivity score (ES-ZH016)
CCS(=O)(=O)N1CCC([C@@H](C)n2c(C)c(C(=O)NCc3c(OC)cc(C)[nH]c3=O)c3ccccc32)CC1 [CPI169],-0.4,-0.4,-0.4,-0.4,-0.3,-0.4,-0.4,-0.4,-0.4,-0.4,-0.3,3.3,-0.4
COc1cc(C(=O)O)ccc1NC(=O)[C@@H]1N[C@@H](CC(C)(C)C)[C@](C#N)(c2ccc(Cl)cc2F)[C@H]1c1cccc(Cl)c1F [Idasanutlin],8.5,4,10,1.9,12,-13.6,23,-13.6,-13.6,19.1,-13.6,15.1,6.4
Cc1ccc(NC(=O)c2ccc(CN3CCN(C)CC3)cc2)cc1Nc1nccc(-c2cccnc2)n1 [Imatinib],-0.8,0.4,-1.3,-1.5,12.4,-2.9,3.2,0.7,-1.3,0.1,-3.3,1.6,-3.3
O=C1c2c(O)ccc(O)c2C(=O)c2c(NCCNCCO)ccc(NCCNCCO)c21 [Mitoxantrone],9.1,5.1,0.4,3.5,-2.1,10.9,21.8,5.1,-1.8,9.8,10,11.9,14.7
Nc1nc(F)nc2c1ncn2[C@@H]1O[C@H](CO)[C@@H](O)[C@@H]1O [Fludarabine],3.9,-3.2,2.5,-0.8,-2.8,4.6,8.7,5.3,3.9,-1.1,-3.2,11.5,1.4
Oc1ccc(/C=C/c2cc(O)cc(O)c2)cc1 [Resveratrol],0,1.4,0.1,-2,-4.6,11.6,16.5,10.1,0.9,13.8,7,4.7,4.4
CCc1cnn2c(NCc3ccc[n+]([O-])c3)cc(N3CCCC[C@H]3CCO)nc12 [Dinaciclib],11.5,14,12.8,12,14,9.8,11.7,9.8,9.6,6.6,13.8,11.6,12.2
CCc1c2c(nc3ccc(OC(=O)N4CCC(N5CCCCC5)CC4)cc13)-c1cc3c(c(=O)n1C2)COC(=O)[C@]3(O)CC [Irinotecan],-0.6,1,-5.3,-4,-9.5,19.6,23.1,23.1,14.3,31.1,9.1,15.8,17.9
Cc1ccc(Nc2nccc(N(C)c3ccc4c(C)n(C)nc4c3)n2)cc1S(N)(=O)=O [Pazopanib],14.6,-2.9,-1.4,0.6,0.4,-2.9,-2.9,-2.9,-2.9,-2.9,-2.9,17.4,-0.7
CC#CC(=O)N1CCC[C@H]1c1nc(-c2ccc(C(=O)Nc3ccccn3)cc2)c2c(N)nccn12 [Acalabrutinib],-2.5,-3.5,-3.2,-2.9,1.4,5.7,9.7,11.2,-3.5,17.5,-3.5,2.4,-2.1
Nc1cc(C(F)F)c(-c2nc(N3C4CCC3COC4)nc(N3C4CCC3COC4)n2)cn1 [PQR620],0.8,1.5,-3.3,-3.2,5,0.1,10.2,5.3,2,4.4,2.8,-3.2,-0.4
Cn1ncc(Cl)c1-c1cc(C(=O)N[C@H](CN)Cc2ccc(F)c(F)c2)oc1Cl [Uprosertib],3.3,3.3,-6,-3.2,-2.5,-2.4,10.7,7.2,1,11.2,5.6,-3.2,1
Cn1nccc1Nc1nccc(-c2ccn([C@H](CO)c3ccc(Cl)c(F)c3)c(=O)c2)n1 [Ravoxertinib],-3.7,-5,-2.3,-5,-5,-5,-0.4,-5,-0.3,-5,1.2,-5,-2
CN[C@@H](C)C(=O)N[C@H](C(=O)N1CCC[C@H]1C(=O)Nc1snnc1-c1ccccc1)C1CCCCC1 [GDC0152],7.6,12.4,5.8,-2.5,11.1,-3.6,1.9,4.8,-0.8,10.7,4.5,0.6,-3.6
